According to patent US5725842A, “Method of administering amiloride” (priority 1996, dated 1998):
Where a name gives a salt, the structure may show the parent alone.

Assays:
[1] = tested on: human cystic fibrosis airway epithilia; test: Inhibition of Na+ transport (short circuit current, ISC) by amiloride hydrochloride dry powder in minature Ussing chamber; format: cell-based
Excerpt: Freshly excised human cystic fibrosis airway […] used to assay bioactive amiloride in solution. Freshly excised tissues is obtained from the Operating Room at The University of North Carolina Hospitals as previously described. R. Boucher, M. Stutts, M. Knowles, L. Cantley, and J. Gatzy, Na+ transport in cystic fibrosis respiratory epithelia. Abnormal basal rate and response to adenylate cyclase activation. J. Clin. Invest. 78, 1245-1252 (1986). The tissue preparation is mounted in a minature Ussing chamber that has 6 ml of solution bathing each (mucosal; basolateral) surface of the preparation. The solution is a Krebs-Ringer bicarbonate solution which approximates the ionic composition of plasma. This solution is warmed (37°) and circulated with a gas lift (95% oxygen, 5% CO2) system. Mixing time in this chamber has been previously measured by calibration with dyes (blue dextran) and is five seconds or less. The measurement of sodium transport rates is performed using a voltage clamp that is interfaced to the tissue preparation by pairs of potential sensing electrodes and current passing electrodes. The current required to null the transepithelial potential difference to zero is the short circuit current, which in human airway tissue is an accurate index of sodium transport rates. See R. Boucher et al., supra. […] This experiment was conducted as described above. […]

[2] = Timed release (dissolution) of respirable solid amiloride particles in Krebs-Ringer solution approximating plasma, assayed as bioactive amiloride; format: physicochemical; conditions: amiloride hydrochloride particles ~1 μm; aqueous solution approximating ionic strength of plasma
Excerpt: Freshly excised human cystic fibrosis airway […] used to assay bioactive amiloride in solution. Freshly excised tissues is obtained from the Operating Room at The University of North Carolina Hospitals as previously described. R. Boucher, M. Stutts, M. Knowles, L. Cantley, and J. Gatzy, Na+ transport in cystic fibrosis respiratory epithelia. Abnormal basal rate and response to adenylate cyclase activation. J. Clin. Invest. 78, 1245-1252 (1986). The tissue preparation is mounted in a minature Ussing chamber that has 6 ml of solution bathing each (mucosal; basolateral) surface of the preparation. The solution is a Krebs-Ringer bicarbonate solution which approximates the ionic composition of plasma. This solution is warmed (37°) and circulated with a gas lift (95% oxygen, 5% CO2) system. Mixing time in this chamber has been previously measured by calibration with dyes (blue dextran) and is five seconds or less. The measurement of sodium transport rates is performed using a voltage clamp that is interfaced to the tissue preparation by pairs of potential sensing electrodes and current passing electrodes. The current required to null the transepithelial potential difference to zero is the short circuit current, which in human airway tissue is an accurate index of sodium transport rates. See R. Boucher et al., supra.

[3] = Size distribution of amiloride aerosol (Andersen impactor); format: physicochemical; conditions: MDI with spacer, 60 Lpm
Description: In each test, the MDI aerosol was dispersed into the spacer via a 50 μl metering valve designed to deliver 1 mg amiloride per puff; however, the actual delivery was closer to 3 mg/puff as determined by spectrophotometric analysis of all amiloride collected as discussed below.
After each experiment, the apparatus was disassembled and each component washed individually with 50 ml of distilled water to remove amiloride and lactose particles.

[4] = in vivo
[5] = liquid aerosol, cystic fibrosis; cited from earlier work
[6] = tested on: airway epithelia; conditions: applied to luminal membrane; cited from earlier work
[7] = in vivo, po; cited from earlier work

For N=C(N)NC(=O)c1nc(Cl)c(N)nc1N [amiloride hydrochloride], the “inhibition of ISC” value ([1]; about 1 μm, at about sixty minutes) was “Complete Inhibition”, the “time to complete inhibition of ISC” value ([1]; particle size about 1 μm, Krebs-Ringer bicarbonate, 37°) was “about sixty” and the “timed release effect of respirable solid particles” value [2] was “dissolved slowly over time”.

For N=C(N)NC(=O)c1nc(Cl)c(N)nc1N [amiloride], the “mass median diameter (mmd)” value [3] is listed as “about 6 um”, the maximum systemic dose [4] is listed as 20 mg daily and the clinical benefit [5] is listed as “clinical benefit”. The “inhibition of Na+ and water absorption” value [6] was “inhibit” and the “effective concentration in the airway lumen” value [7] was “cannot be achieved”.
